Data: ChEMBL document CHEMBL4346703, “Structure Overhaul Affords a Potent Purine PI3Kδ Inhibitor with Improved Tolerability” (J Med Chem, 2019)

How the values were obtained:
Rattus norvegicus = assay: Hemodynamic activity in telemetered rat assessed as effect on heart rate at 60 mg/kg; type: ADME, organism-based; details: in vivo
[1] = Intrinsic clearance in rat hepatocytes; type: ADME, cell-based, Hepatocyte; details: read-out: CLH
[2] = Toxicity in Beagle dogs assessed as body weight loss at 25 mg/kg administered for 8 days; type: organism-based, Canis lupus familiaris; details: dog, in vivo, 192 h
[3] = Drug recovery in rat bile after 24 hrs; type: ADME; details: read-out: Drug recovery
Canis familiaris = assay: Hemodynamic activity in Beagle dog at 25 mg/kg administered for 8 days; type: ADME, organism-based, Canis lupus familiaris; details: in vivo, 192 h
[4] = molecular target: Dual 3',5'-cyclic-AMP and -GMP phosphodiesterase 11A (Homo sapiens, UniProt Q9HCR9); assay: Inhibition of PDE11 (unknown origin)
[5] = Toxicity in Beagle dog assessed as decrease in basophil count at 25 mg/kg administered for 8 days; type: organism-based, Canis lupus familiaris; details: in vivo, 192 h
[6] = molecular target: T1, Phosphatidylinositol 4,5-bisphosphate 3-kinase catalytic subunit delta isoform (Homo sapiens, UniProt O00329); assay: Inhibition of PI3Kdelta in human Ramos cells assessed as reduction in anti-IgM-antibody-induced phosphorylation of AKT at Ser473 residue preincubated for 20 mins followed by anti-IgM antibody stimulation and measured after 30 mins by alphascreen assay; type: cell-based
T1 sequence (O00329 whole entry): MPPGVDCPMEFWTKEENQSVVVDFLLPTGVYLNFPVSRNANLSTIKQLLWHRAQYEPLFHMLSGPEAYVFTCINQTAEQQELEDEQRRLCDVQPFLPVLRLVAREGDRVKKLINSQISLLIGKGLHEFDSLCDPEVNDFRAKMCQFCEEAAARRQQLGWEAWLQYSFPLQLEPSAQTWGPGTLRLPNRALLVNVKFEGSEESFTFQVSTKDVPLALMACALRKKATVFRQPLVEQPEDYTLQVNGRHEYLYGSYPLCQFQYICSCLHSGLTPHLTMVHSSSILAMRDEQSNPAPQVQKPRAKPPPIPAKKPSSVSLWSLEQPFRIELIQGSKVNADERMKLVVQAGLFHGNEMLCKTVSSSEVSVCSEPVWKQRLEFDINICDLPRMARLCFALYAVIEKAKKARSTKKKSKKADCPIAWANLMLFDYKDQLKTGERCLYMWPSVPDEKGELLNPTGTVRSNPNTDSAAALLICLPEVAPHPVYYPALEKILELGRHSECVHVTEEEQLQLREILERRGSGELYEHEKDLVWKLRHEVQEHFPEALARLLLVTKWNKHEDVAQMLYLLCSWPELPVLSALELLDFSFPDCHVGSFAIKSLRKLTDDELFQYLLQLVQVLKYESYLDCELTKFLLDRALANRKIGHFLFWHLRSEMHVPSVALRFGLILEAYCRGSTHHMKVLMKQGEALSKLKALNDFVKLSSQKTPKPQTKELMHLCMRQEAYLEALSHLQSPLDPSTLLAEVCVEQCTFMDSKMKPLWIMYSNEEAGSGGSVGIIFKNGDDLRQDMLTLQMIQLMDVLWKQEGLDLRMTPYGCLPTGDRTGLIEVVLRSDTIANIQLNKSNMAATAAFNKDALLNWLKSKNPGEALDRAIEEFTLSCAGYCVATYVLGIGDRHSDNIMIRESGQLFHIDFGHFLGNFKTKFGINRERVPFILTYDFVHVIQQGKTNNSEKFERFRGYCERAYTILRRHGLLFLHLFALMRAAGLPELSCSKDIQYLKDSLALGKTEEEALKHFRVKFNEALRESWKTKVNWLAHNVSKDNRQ

[7] = molecular target: T1, Phosphatidylinositol 4,5-bisphosphate 3-kinase catalytic subunit delta isoform; assay: Inhibition of PI3Kdelta in human whole blood assessed as reduction in anti-CD79b antibody-induced CD69 expression preincubated for 60 mins followed by anti-CD79b antibody stimulation and measured after 3 hrs by FACS analysis; type: tissue-based
[8] = molecular target: cGMP-specific 3',5'-cyclic phosphodiesterase (Homo sapiens, UniProt O76074); assay: Inhibition of PDE5 (unknown origin)
[9] = fAUC in rat at 750 mg/kg administered for 4 days; type: ADME, organism-based; details: in vivo, 96 h
[10] = Intrinsic clearance in Beagle dog at 0.25 mg/kg, iv or 0.5 mg/kg, po; type: ADME, organism-based, Canis lupus familiaris; details: in vivo
[11] = Toxicity in Beagle dog assessed as decrease in RBC count at 25 mg/kg administered for 8 days; type: organism-based, Canis lupus familiaris; details: in vivo, 192 h
[12] = molecular target: cAMP and cAMP-inhibited cGMP 3',5'-cyclic phosphodiesterase 10A (Homo sapiens, UniProt Q9Y233); assay: Inhibition of PDE10 (unknown origin)
[13] = fCmax in telemetered rat at 60 mg/kg; type: ADME, organism-based; details: in vivo
[14] = Plasma clearance in Wistar Han rat at 0.5 mg/kg, iv or 1 mg/kg, po; type: ADME, organism-based
[15] = fAUC in Beagle dog at 25 mg/kg administered for 8 days; type: ADME, organism-based, Canis lupus familiaris; details: in vivo, 192 h
[16] = fAUC in telemetered rat at 60 mg/kg; type: ADME, organism-based; details: in vivo
[17] = Protein binding in human plasma; type: ADME, cell-free; details: read-out: PPB (converted)
Phosphodiesterase 3 = Phosphodiesterase 3 (Homo sapiens, UniProt Q14432+Q13370); assay: Inhibition of PDE3 (unknown origin); type: protein assay

Sequence of cAMP and cAMP-inhibited cGMP 3',5'-cyclic phosphodiesterase 10A (Q9Y233 whole entry): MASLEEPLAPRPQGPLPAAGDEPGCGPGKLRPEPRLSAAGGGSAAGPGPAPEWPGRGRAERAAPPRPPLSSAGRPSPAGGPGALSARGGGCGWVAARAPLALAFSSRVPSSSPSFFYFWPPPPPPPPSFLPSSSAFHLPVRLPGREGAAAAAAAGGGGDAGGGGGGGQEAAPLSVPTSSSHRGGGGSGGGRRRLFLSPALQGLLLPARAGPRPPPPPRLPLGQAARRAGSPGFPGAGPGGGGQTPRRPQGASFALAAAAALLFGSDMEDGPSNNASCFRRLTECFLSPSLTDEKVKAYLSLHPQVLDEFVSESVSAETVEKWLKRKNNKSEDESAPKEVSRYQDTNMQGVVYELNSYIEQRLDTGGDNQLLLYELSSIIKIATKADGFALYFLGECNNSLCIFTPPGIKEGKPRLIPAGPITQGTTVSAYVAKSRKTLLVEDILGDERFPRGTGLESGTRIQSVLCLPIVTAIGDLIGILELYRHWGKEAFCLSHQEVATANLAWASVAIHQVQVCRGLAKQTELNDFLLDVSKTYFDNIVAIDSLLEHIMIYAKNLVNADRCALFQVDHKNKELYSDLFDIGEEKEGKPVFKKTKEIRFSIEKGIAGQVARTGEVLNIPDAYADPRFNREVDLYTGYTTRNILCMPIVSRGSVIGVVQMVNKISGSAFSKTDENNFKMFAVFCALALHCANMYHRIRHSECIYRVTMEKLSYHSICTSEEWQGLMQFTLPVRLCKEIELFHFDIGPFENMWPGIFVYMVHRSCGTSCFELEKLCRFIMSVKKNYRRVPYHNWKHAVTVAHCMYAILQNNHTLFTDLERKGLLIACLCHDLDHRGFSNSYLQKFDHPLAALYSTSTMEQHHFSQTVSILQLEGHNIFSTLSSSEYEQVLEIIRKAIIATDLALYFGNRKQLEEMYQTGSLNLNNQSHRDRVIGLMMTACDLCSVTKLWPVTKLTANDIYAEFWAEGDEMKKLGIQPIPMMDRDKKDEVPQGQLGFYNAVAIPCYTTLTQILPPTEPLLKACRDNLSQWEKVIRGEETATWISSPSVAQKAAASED
Sequence of Dual 3',5'-cyclic-AMP and -GMP phosphodiesterase 11A (Q9HCR9 whole entry): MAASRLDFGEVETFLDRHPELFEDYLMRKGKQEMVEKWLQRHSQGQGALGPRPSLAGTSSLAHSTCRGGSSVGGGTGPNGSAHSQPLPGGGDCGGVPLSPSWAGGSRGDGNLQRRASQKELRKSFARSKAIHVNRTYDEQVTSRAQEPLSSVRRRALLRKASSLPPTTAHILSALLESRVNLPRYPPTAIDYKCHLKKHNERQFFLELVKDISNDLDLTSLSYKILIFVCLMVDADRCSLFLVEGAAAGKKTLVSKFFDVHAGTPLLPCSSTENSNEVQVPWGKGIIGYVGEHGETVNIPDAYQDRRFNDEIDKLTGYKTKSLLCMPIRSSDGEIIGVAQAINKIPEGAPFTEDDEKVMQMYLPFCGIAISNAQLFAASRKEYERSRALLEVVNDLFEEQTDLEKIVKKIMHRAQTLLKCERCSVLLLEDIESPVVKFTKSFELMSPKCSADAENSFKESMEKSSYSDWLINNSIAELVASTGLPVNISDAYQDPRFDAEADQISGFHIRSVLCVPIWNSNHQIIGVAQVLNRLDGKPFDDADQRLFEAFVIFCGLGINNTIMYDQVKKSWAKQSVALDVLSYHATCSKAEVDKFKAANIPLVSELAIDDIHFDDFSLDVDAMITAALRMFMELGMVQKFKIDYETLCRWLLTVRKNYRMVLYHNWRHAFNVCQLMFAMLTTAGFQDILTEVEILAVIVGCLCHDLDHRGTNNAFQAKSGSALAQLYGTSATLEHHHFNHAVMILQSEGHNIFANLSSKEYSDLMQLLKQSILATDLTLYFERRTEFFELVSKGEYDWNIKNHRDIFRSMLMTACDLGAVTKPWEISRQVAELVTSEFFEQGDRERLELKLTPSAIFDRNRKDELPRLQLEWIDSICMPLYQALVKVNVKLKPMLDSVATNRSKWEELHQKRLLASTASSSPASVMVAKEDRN

CCn1ncc(-c2nc3c(O[C@H]4CCN(C(=O)C5CCOCC5)C4)ncnc3n2C)c1C
Activity (Rattus norvegicus): Non-Toxic
CLint scaled [1]: < 40 mL/min/kg
Activity [2]: Non-Toxic
dose excreted at 24 h [3]: 2%
Activity (Canis familiaris): Non-Toxic
IC50 [4]: > 20 µM
Activity [5]: Non-Toxic
IC50 [6]: 0.062 µM
IC50 [7]: 0.36 µM
IC50 [8]: > 50 µM
fAUC [9]: 990 µM·h
CL [10]: 10 mL/min/kg
Activity [11]: Non-Toxic
IC50 [12]: > 50 µM
fCmax [13]: 44 µM
clearance [14]: 41 mL/min/kg
fAUC [15]: 222 µM·h
fAUC [16]: 61 µM·h
fraction unbound [17]: 0.83
IC50 (Phosphodiesterase 3): > 50 µM
